{"source": "patent US5004758A", "about": "“Water soluble camptothecin analogs useful for inhibiting the growth of animal tumor cells” (priority 1988, dated 1991)", "key": {"[1]": {"system": "eight cultured human colon tumor cell lines", "assay": "Cytotoxicity in series of eight cultured human colon tumor cell lines", "type": "cell-based", "experimental": "For a brief exposure (2 hours) to the drug, the 50 percent inhibitory concentration ranged from 0.12-2.1 μg/ml.\nThe cell lines are used and maintained as monolayer cultures in Minimal Essential Media (Grand Island Biological Co., Grand Island, N.Y.) supplemented with 10% fetal calf serum in a 5% CO2 humidified incubator at 37° C. Various concentrations of a Formula (I) compound under sterile conditions were allowed to react for 2 hours followed by aspiration of medium or were exposed continuously. Plates are incubated for 7 days at 37° C. in a CO2 incubator. Medium was aspirated and cells were fixed and stained with ethanol and Geisma stain. The surviving cell population was determined by scanning the plates with an image analyzer. The percent inhibition of proliferation was determined relative to cells incubated in the absence of drug and the 50 percent inhibitory concentration (IC50) was determined by interpolation."}, "[2]": {"system": "ip colon carcinoma 26", "assay": "ip-implanted colon carcinoma 26 in mice", "type": "in vivo, mouse", "conditions": "ip Colon 26, B/ip (Days 1, 5, 9 and 13)", "text": "Tumors used in these studies--P388 leukemia and its doxorbicin--and mitoxanrone-resistant sublines, L1210 leukemia, B16 melanoma, B16 melanoma/F10 subline, M5076 sarcoma and colon carcinoma 26--are maintained by serial transplantation in syngeneic strains of mice. For the leukemias, these tumors are maintained in DBA/2 mice. The M5076 sarcoma, the B16 melanoma and its F10 subline are maintained in C57B1/6 mice and the colon sarcinoma 26 is maintained in BALB/c mice. The leukemias and the M5076 sarcoma are serially transplanted i.p. as ascites cell suspensions while the B16 melanoma lines and the colon carcinoma 26 are serially transplanted as s.c. solid tumors.\nFor therapeutic trials, tumors are aseptically removed from donor mice and prepared as suspensions for implantation ip into test animals. The test animals for the colon carcinoma 26 are female BALB/c mice (20-25 gm). The test animals for the other tumor models are syngeneic female F1 hybrid B6D2F1 mice (C57B1/6 x DBA/2). The inoculum level varies with the type of tumor: P388 leukemia is inoculated at 10^6 cells per mouse, L1210 leukemia at 10^5 or 10^6 cells per mouse, M5076 sarcoma at 5×10^6 cells per mouse. For implantation of the B16 melanoma lines and the colon carcinoma 26, s.c. tumors from donor mice are minced and homogenized in loose fitting teflon glass homogenizer to give a tumor brei. The inoculum levels are 0.5 ml of a 10 percent (w:v) brei of the B16 melanoma lines and 0.5 ml of a 5 percent (w:v) brei of colon carcinoma 26. After tumor inoculation, mice randomized to treatment groups comprised of 6-8 mice each. In each experiment, there are three groups of untreated control mice. Drugs are dissolved or suspended in appropriate aqueous vehicles and given by a variety of routes and schedules of administration over a range of dose levels. Animals are housed in shoebox cages and are monitored daily for mortality for 30 (L1210), 45 (P388) or 60 (B16, M5076, colon 26) days."}, "[3]": {"system": "sc colon adenocarcinoma 51", "type": "in vivo, mouse", "conditions": "for Tumor growth inhibition (TGI) / Mice without Palpable Tumors: sc Colon 51", "description": "(§1) The inoculum varies with the tumor."}, "[4]": {"system": "sc B16 melanoma/F10 subline", "assay": "sc-implanted B16 melanoma/F10 subline in mice", "type": "in vivo, mouse", "description": "as §1"}, "[5]": {"system": "sc M5076 sarcoma", "assay": "sc-implanted M5076 sarcoma in mice", "type": "in vivo, mouse", "conditions": "for Mice without Palpable Tumors: B/ip", "description": "as §1"}, "[6]": {"system": "sc Madison lung carcinoma", "assay": "sc-implanted Madison lung carcinoma in mice", "type": "in vivo, mouse", "conditions": "mouse, in vivo", "description": "as §1"}}, "note": "Structures can show the parent of a compound that is named as a salt. Where two headings read alike, the source gives them in different places."}
{"smiles": "CC[C@@]1(O)C(=O)OCc2c1cc1n(c2=O)Cc2cc3c(CN(C)C)c(O)ccc3nc2-1", "note": "[Compound No. 1S, (20 S) 9-Dimethylaminomethyl-10-hydroxycamptothecin Acetate Salt]", "values": [{"measurement": "IC50", "setting": "[1]; 168 h, drug left in medium for full 7-day period, read-out: IC50 values, range over eight lines", "result": "0.0039 to 0.075", "unit": "µg/mL"}, {"measurement": "IC50", "setting": "[1]; brief exposure (2 hours), read-out: 50 percent inhibitory concentration, range over eight lines", "result": "0.12 to 2.1", "unit": "µg/mL"}, {"measurement": "Increase in lifespan (ILS)", "setting": "[2]; 5 mg/kg/injection", "result": 5, "unit": "%"}, {"measurement": "Increase in lifespan (ILS)", "setting": "[2]; 10 mg/kg/injection", "result": 25, "unit": "%"}, {"measurement": "Increase in lifespan (ILS)", "setting": "[2]; 20 mg/kg/injection", "result": "toxic"}, {"measurement": "Increase in lifespan (ILS)", "setting": "[2]; 40 mg/kg/injection", "result": "toxic"}, {"measurement": "Tumor growth inhibition (TGI)", "setting": "[3]; G/ip (Days 3, 10, 17 and 24), 3.1 mg/kg/injection", "result": 34, "unit": "%"}, {"measurement": "Tumor growth inhibition (TGI)", "setting": "[3]; G/ip (Days 3, 10, 17 and 24), 5.2 mg/kg/injection", "result": 36, "unit": "%"}, {"measurement": "Tumor growth inhibition (TGI)", "setting": "[3]; G/ip (Days 3, 10, 17 and 24), 8.6 mg/kg/injection", "result": 53, "unit": "%"}, {"measurement": "Tumor growth inhibition (TGI)", "setting": "[3]; G/ip (Days 3, 10, 17 and 24), 14 mg/kg/injection", "result": 76, "unit": "%"}, {"measurement": "Tumor growth inhibition (TGI)", "setting": "[3]; G/ip (Days 3, 10, 17 and 24), 24 mg/kg/injection", "result": 88, "unit": "%"}, {"measurement": "Mice without Palpable Tumors", "setting": "[3]; G/ip, 8.6 mg/kg/injection", "result": "1/8"}, {"measurement": "Mice without Palpable Tumors", "setting": "[3]; G/ip, 14 mg/kg/injection", "result": "1/8"}, {"measurement": "Mice without Palpable Tumors", "setting": "[3]; G/ip, 24 mg/kg/injection", "result": "3/8"}, {"measurement": "Tumor growth inhibition (TGI)", "setting": "[3]; H/ip (every 3 hours x4 on Days 3, 10, 14 and 24), 0.47 mg/kg/injection", "result": 37, "unit": "%"}, {"measurement": "Tumor growth inhibition (TGI)", "setting": "[3]; H/ip (every 3 hours x4 on Days 3, 10, 14 and 24), 0.78 mg/kg/injection", "result": 73, "unit": "%"}, {"measurement": "Tumor growth inhibition (TGI)", "setting": "[3]; H/ip (every 3 hours x4 on Days 3, 10, 14 and 24), 1.3 mg/kg/injection", "result": 88, "unit": "%"}, {"measurement": "Tumor growth inhibition (TGI)", "setting": "[3]; H/ip (every 3 hours x4 on Days 3, 10, 14 and 24), 2.2 mg/kg/injection", "result": 89, "unit": "%"}, {"measurement": "Tumor growth inhibition (TGI)", "setting": "[3]; H/ip (every 3 hours x4 on Days 3, 10, 14 and 24), 3.6 mg/kg/injection", "result": 92, "unit": "%"}, {"measurement": "Mice without Palpable Tumors", "setting": "[3]; H/ip, 0.78 mg/kg/injection", "result": "1/8"}, {"measurement": "Mice without Palpable Tumors", "setting": "[3]; H/ip, 1.3 mg/kg/injection", "result": "3/8"}, {"measurement": "Mice without Palpable Tumors", "setting": "[3]; H/ip, 2.2 mg/kg/injection", "result": "4/8"}, {"measurement": "Mice without Palpable Tumors", "setting": "[3]; H/ip, 3.6 mg/kg/injection", "result": "4/8"}, {"measurement": "Increase in Lifespan (ILS) or Inhibition of Tumor Growth (TGI)", "setting": "[3]; sc Colon Adenocarcinoma 51, optimal doses and optimal schedules", "result": 92, "unit": "% TGI"}, {"measurement": "Increase in Lifespan (ILS) or Inhibition of Tumor Growth (TGI)", "setting": "[4]; mouse, in vivo, sc", "result": 100, "unit": "% TGI"}, {"measurement": "Tumor growth inhibition (TGI)", "setting": "[4]; sc B16/F10, B/ip (Days 1, 5, 9 and 13), 3.2 mg/kg/injection", "result": 52, "unit": "%"}, {"measurement": "Tumor growth inhibition (TGI)", "setting": "[4]; sc B16/F10, B/ip (Days 1, 5, 9 and 13), 5.4 mg/kg/injection", "result": 62, "unit": "%"}, {"measurement": "Tumor growth inhibition (TGI)", "setting": "[4]; sc B16/F10, B/ip (Days 1, 5, 9 and 13), 9 mg/kg/injection", "result": 57, "unit": "%"}, {"measurement": "Tumor growth inhibition (TGI)", "setting": "[4]; sc B16/F10, B/ip (Days 1, 5, 9 and 13), 15 mg/kg/injection", "result": 87, "unit": "%"}, {"measurement": "Tumor growth inhibition (TGI)", "setting": "[4]; sc B16/F10, B/ip (Days 1, 5, 9 and 13), 25 mg/kg/injection", "result": 100, "unit": "%"}, {"measurement": "Mice without Palpable Tumors", "setting": "[4]; sc B16/F10, B/ip, 25 mg/kg/injection", "result": "7/8"}, {"measurement": "Tumor growth inhibition (TGI)", "setting": "[4]; sc B16/F10, F/iv (Days 1, 5 and 9), 3.2 mg/kg/injection", "result": 22, "unit": "%"}, {"measurement": "Tumor growth inhibition (TGI)", "setting": "[4]; sc B16/F10, F/iv (Days 1, 5 and 9), 5.4 mg/kg/injection", "result": 34, "unit": "%"}, {"measurement": "Tumor growth inhibition (TGI)", "setting": "[4]; sc B16/F10, F/iv (Days 1, 5 and 9), 9 mg/kg/injection", "result": 60, "unit": "%"}, {"measurement": "Tumor growth inhibition (TGI)", "setting": "[4]; sc B16/F10, F/iv (Days 1, 5 and 9), 15 mg/kg/injection", "result": 97, "unit": "%"}, {"measurement": "Tumor growth inhibition (TGI)", "setting": "[4]; sc B16/F10, F/iv (Days 1, 5 and 9), 25 mg/kg/injection", "result": 97, "unit": "%"}, {"measurement": "Mice without Palpable Tumors", "setting": "[4]; sc B16/F10, F/iv, 3.2 mg/kg/injection", "result": "1/8"}, {"measurement": "Mice without Palpable Tumors", "setting": "[4]; sc B16/F10, F/iv, 5.4 mg/kg/injection", "result": "1/8"}, {"measurement": "Mice without Palpable Tumors", "setting": "[4]; sc B16/F10, F/iv, 9 mg/kg/injection", "result": "2/8"}, {"measurement": "Mice without Palpable Tumors", "setting": "[4]; sc B16/F10, F/iv, 15 mg/kg/injection", "result": "7/8"}, {"measurement": "Mice without Palpable Tumors", "setting": "[4]; sc B16/F10, F/iv, 25 mg/kg/injection", "result": "6/8"}, {"measurement": "Increase in lifespan (ILS)", "setting": "[4]; sc B16/F10, ip treatment at 25", "result": 70, "unit": "%"}, {"measurement": "tumor growth inhibition at two dose levels", "setting": "[4]; sc B16/F10, iv on Days 1, 5 and 9", "result": 97, "unit": "%"}, {"measurement": "ILS", "setting": "[4]; sc B16/F10, iv treatment at the same dose level (25)", "result": 38, "unit": "%"}, {"measurement": "TGI at three dose levels at or below a maximally tolerated dose", "setting": "[5]; mouse, in vivo", "result": "> 90"}, {"measurement": "Tumor growth inhibition (TGI)", "setting": "[5]; mouse, in vivo, 3.2 mg/kg", "result": 64, "unit": "%"}, {"measurement": "Tumor growth inhibition (TGI)", "setting": "[5]; mouse, in vivo, 5.4 mg/kg", "result": 92, "unit": "%"}, {"measurement": "Tumor growth inhibition (TGI)", "setting": "[5]; mouse, in vivo, 9 mg/kg", "result": 98, "unit": "%"}, {"measurement": "Tumor growth inhibition (TGI)", "setting": "[5]; mouse, in vivo, 15 mg/kg", "result": 100, "unit": "%"}, {"measurement": "Tumor growth inhibition (TGI)", "setting": "[5]; mouse, in vivo, 25 mg/kg", "result": "toxic"}, {"measurement": "Increase in Lifespan (ILS) or Inhibition of Tumor Growth (TGI)", "setting": "[5]; mouse, in vivo, sc", "result": 100, "unit": "% TGI"}, {"measurement": "Mice without Palpable Tumors", "setting": "[5]; sc M5076, 3.2 mg/kg/injection", "result": "2/8"}, {"measurement": "Mice without Palpable Tumors", "setting": "[5]; sc M5076, 5.4 mg/kg/injection", "result": "3/8"}, {"measurement": "Mice without Palpable Tumors", "setting": "[5]; sc M5076, 9 mg/kg/injection", "result": "6/8"}, {"measurement": "Mice without Palpable Tumors", "setting": "[5]; sc M5076, 15 mg/kg/injection", "result": "8/8"}, {"measurement": "prolonged lifespan", "setting": "[5]; sc M5076, ip Days 1, 5, 9 and 13", "result": 31, "unit": "%"}, {"measurement": "TGI at the maximally tolerated dose", "setting": "[6]", "result": 74}, {"measurement": "Tumor growth inhibition (TGI)", "setting": "[6]; 1.5 mg/kg", "result": 0, "unit": "%"}, {"measurement": "Tumor growth inhibition (TGI)", "setting": "[6]; 3 mg/kg", "result": 0, "unit": "%"}, {"measurement": "Tumor growth inhibition (TGI)", "setting": "[6]; 6 mg/kg", "result": 21, "unit": "%"}, {"measurement": "Tumor growth inhibition (TGI)", "setting": "[6]; 12 mg/kg", "result": 0, "unit": "%"}, {"measurement": "Mice without Palpable Tumors", "setting": "[6]; 24 mg/kg", "result": "1/8"}, {"measurement": "Increase in Lifespan (ILS) or Inhibition of Tumor Growth (TGI)", "setting": "[6]; sc", "result": 85, "unit": "% TGI"}, {"measurement": "inhibition of tumor growth at the maximally tolerated dose", "setting": "[6]; sc", "result": "> 70"}]}
